Consider two compounds from US11339161B2, “Triazolo pyridines as modulators of gamma-secretase” (Boehringer Ingelheim International GmbH, priority 2017, dated 2022).

Where two headings read alike, the source gives them in different places.

As usually defined, the inhibition is the drop in the measured response relative to a control, in per cent.

Assay [1] concerns the target FGFR2 (Homo sapiens, UniProt P21802). Nature of the assay: Z'-LYTE SelectScreen biochemical kinase assay FGFR2. The method in brief:
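FRET peptide cleavage (Z′-LYTE) read-out: 10 μL reaction of 0.19-1.99 ng FGFR2 with 2 μM Tyr 04 peptide in HEPES pH 7.5, MgCl2, 2 mM MnCl2, DTT, 1% DMSO; ATP at apparent Km. 60 min at room temperature, then 60 min development. Coumarin/fluorescein emission ratio; 10-point 3-fold titrations fitted sigmoidally.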

Assay [2] addresses ABL1 (Homo sapiens, UniProt P00519). Nature of the assay: Z'-LYTE SelectScreen biochemical kinase assay ABL1.
Assay [3] has as its target T1, AURKA (Aurora A) (Homo sapiens, UniProt O14965).
T1 sequence (O14965 1-403): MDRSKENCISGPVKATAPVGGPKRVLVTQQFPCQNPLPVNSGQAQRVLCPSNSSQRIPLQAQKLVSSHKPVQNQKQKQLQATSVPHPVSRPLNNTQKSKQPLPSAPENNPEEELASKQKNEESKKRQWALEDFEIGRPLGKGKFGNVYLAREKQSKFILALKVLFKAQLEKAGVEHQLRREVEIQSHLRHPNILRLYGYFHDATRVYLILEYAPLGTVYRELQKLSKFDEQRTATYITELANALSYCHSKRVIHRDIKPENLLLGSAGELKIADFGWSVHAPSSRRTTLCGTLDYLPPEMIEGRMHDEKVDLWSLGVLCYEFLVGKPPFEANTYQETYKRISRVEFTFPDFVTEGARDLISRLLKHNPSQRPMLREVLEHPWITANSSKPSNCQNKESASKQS
Nature of the assay: Z'-LYTE SelectScreen biochemical kinase assay AURKA (Aurora A).

Assay [4] has as its system panel of 15 kinases. Description: Z'-LYTE SelectScreen kinase panel: number of kinases with <40% inhibition. The note with it: of 15 kinases tested; 10 μmolar compound; ATP at Km app. It counts as biochemical.
Where [5] appears, read: 10 μmolar compound concentration, ATP at Km app, read-out: FGFR2 inhibition.
Setting [6] is: read-out: % Inhibition mean FGFR2.
The mark [7] stands for this setting: 10 μmolar compound concentration, ATP at Km app, read-out: ABL1 inhibition.
Where [8] appears, read: read-out: % Inhibition mean ABL1.
Where [9] appears, read: 10 μmolar compound concentration, ATP at Km app, read-out: AURKA (Aurora A) inhibition.
Where [10] appears, read: read-out: % Inhibition mean AURKA (Aurora A).

Chain of FGFR2 (P21802 22-821): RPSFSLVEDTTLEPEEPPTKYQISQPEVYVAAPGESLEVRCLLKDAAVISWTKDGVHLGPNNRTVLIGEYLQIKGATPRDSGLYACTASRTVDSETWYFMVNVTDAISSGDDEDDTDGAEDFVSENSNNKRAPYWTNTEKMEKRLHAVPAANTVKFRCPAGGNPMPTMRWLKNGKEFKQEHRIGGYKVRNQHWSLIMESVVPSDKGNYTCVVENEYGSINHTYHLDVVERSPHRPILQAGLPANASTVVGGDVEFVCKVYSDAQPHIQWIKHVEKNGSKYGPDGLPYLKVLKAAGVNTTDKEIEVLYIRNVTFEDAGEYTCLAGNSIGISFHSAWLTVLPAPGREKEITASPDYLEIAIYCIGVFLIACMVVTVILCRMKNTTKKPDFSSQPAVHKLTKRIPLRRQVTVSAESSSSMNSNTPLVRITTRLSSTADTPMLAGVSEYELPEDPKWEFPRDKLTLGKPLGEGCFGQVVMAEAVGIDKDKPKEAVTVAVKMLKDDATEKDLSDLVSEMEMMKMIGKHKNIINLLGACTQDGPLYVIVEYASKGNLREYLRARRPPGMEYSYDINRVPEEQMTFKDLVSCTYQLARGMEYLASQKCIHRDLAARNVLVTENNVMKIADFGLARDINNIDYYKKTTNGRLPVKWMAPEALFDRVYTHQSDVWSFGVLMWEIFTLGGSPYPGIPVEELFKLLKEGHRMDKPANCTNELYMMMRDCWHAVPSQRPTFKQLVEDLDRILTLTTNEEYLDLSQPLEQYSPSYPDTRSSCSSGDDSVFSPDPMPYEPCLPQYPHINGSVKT
Chain of ABL1 (P00519 whole entry): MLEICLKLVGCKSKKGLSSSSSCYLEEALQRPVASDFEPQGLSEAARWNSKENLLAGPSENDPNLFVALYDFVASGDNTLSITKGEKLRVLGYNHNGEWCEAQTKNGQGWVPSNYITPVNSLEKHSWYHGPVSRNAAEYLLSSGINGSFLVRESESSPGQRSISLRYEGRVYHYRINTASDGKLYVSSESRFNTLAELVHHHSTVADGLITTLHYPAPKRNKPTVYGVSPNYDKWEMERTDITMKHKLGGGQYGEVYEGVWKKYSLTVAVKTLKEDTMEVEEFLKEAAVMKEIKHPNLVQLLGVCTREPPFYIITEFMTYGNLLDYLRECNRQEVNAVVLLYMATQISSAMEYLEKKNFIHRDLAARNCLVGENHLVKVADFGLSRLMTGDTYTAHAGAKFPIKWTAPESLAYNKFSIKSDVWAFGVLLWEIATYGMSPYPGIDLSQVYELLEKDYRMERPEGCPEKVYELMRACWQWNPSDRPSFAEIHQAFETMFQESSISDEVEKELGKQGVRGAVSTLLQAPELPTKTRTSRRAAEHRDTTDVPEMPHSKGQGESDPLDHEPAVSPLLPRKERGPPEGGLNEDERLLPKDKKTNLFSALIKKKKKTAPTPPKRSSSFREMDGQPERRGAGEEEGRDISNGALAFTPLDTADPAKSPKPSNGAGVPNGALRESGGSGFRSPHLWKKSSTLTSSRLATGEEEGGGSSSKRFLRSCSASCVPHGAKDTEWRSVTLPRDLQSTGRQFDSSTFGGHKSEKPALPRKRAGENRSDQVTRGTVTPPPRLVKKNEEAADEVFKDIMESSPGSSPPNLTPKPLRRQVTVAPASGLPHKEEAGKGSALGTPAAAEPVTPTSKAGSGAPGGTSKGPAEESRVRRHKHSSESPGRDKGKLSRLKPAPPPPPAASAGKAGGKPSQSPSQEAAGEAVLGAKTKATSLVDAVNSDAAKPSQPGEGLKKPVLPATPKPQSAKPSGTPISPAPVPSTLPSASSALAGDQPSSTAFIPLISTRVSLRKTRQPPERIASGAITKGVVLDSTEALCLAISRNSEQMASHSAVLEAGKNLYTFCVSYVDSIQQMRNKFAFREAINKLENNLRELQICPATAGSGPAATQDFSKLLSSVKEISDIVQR

Consider `CCn1ncc2c1CCC(Nc1nc3c(-c4ccc(C)nc4)cccn3n1)C2` (centres unmarked) [Example 67, (1-Ethyl-4,5,6,7-tetrahydro-1H-indazol-5-yl)-[8-(6-methyl-pyridin-3-yl)-[1,2,4]triazolo[1,5-a]pyridine-2-yl]-amine], for which the inhibition at 10 µM is less than 40% in assay [1] (setting [5]); 30% in assay [1] (setting [6]); less than 40% in assay [2] (setting [7]); 11% in assay [2] (setting [8]); less than 40% in assay [3] (setting [9]); 6% in assay [3] (setting [10]). The “No. of kinases with <40% inhibition” value in assay [4] is given as 14/15.

As for `CCn1ncc2c1CCC(Nc1nc3c(-c4ccc(OC)nc4)cccn3n1)C2` (centres unmarked) [Example 71, (1-Ethyl-4,5,6,7-tetrahydro-1H-indazol-5-yl)-[8-(6-methoxy-pyridin-3-yl)-[1,2,4]triazolo[1,5-a]pyridine-2-yl]-amine], the inhibition at 10 µM in assay [1] (setting [5]) is less than 40%; in assay [1] (setting [6]), 27%; in assay [2] (setting [7]), less than 40%; in assay [2] (setting [8]) it was 24%; in assay [3] (setting [9]), 40 to 80%; in assay [3] (setting [10]), 42%. Also, the “No. of kinases with <40% inhibition” value in assay [4] was 11/15.
